Patent US20240309012A1, “ISOQUINOLINE COMPOUND, MANUFACTURING METHOD THEREFOR, AND APPLICATION THEREOF” (priority 2020, published 2024)
Read-outs that look alike come from different tables or passages of the source.

How the values were obtained:
[1] = Cytotoxicity test on Vero E6 cells by CCK8 kit; type: cell-based; conditions: African green monkey
Description: (§1) In this example, the median toxic concentration (CC50) of each example on Vero E6 cells was analysed and determined by CCK8 kit.

[2] = tested on: 2019 novel coronavirus (SARS-CoV-2); assay: Inhibition of 2019 novel coronavirus (SARS-CoV-2) replication in Vero E6 cells, virus copy number by qRT-PCR; type: cell-based
Vero E6 cells = assay: Cytotoxicity test on Vero E6 cells by CCK8 kit; type: cell-based
Description: as §1

SARS-CoV-2 = conditions: existing literature; cited from earlier work
[3] = Severe acute respiratory syndrome coronavirus 2, Vero C1008, Vero E6 cells, MOI 0.01, 24 h p.i., qRT-PCR of supernatant
[4] = Severe acute respiratory syndrome coronavirus 2, Vero C1008, 24 h

| Compound | CC50 [1] | EC50 [2, 3] | further results |
| --- | --- | --- | --- |
| COc1cc2c3cc1Oc1c(OC)c(OC)cc4c1[C@@H](Cc1ccc(C#N)c(c1)Oc1ccc(cc1)C[C@@H]3N(C)CC2)N(C)CC4 [Compound 1] | 25.6 µM | 0.7 µM |  |
| COc1cc2c3cc1Oc1c(OC)c(OC)cc4c1[C@@H](Cc1ccc(C=O)c(c1)Oc1ccc(cc1)C[C@@H]3N(C)CC2)N(C)CC4 [Compound 2] | 102 µM | 1.19 µM |  |
| COc1cc2c3cc1Oc1c(OC)c(OC)cc4c1[C@@H](Cc1ccc(CO)c(c1)Oc1ccc(cc1)C[C@@H]3N(C)CC2)N(C)CC4 [Compound 3] | 70.5 µM | 1.12 µM |  |
| CCCCNC(=O)Oc1ccc2cc1Oc1ccc(cc1)C[C@H]1c3cc(c(OC)cc3CCN1C)Oc1c(OC)c(OC)cc3c1[C@@H](C2)N(C)CC3 [Compound 4] | 31.5 µM |  | EC50 [2, 4]: 0.94 µM |
| COc1cc2c3cc1Oc1c(OC)c(OC)cc4c1[C@@H](Cc1ccc(OC(=O)CCCC[C@H]5CCSS5)c(c1)Oc1ccc(cc1)C[C@@H]3N(C)CC2)N(C)CC4 [Compound 5] | 172 µM | 1.5 µM |  |
| COC(=O)c1ccc2cc1Oc1ccc(cc1)C[C@H]1c3cc(c(OC)cc3CCN1C)Oc1c(OC)c(OC)cc3c1[C@@H](C2)N(C)CC3 [Compound 8] | 31.4 µM | 0.36 µM |  |
| COc1cc2c3cc1Oc1c(OC)c(OC)cc4c1[C@@H](Cc1ccc(C(N)=O)c(c1)Oc1ccc(cc1)C[C@@H]3N(C)CC2)N(C)CC4 [Compound 9] | 63.2 µM | 0.55 µM |  |
| COc1cc2c3cc1Oc1c(OC)c(OC)cc4c1[C@@H](Cc1cc(c5oc(=O)[nH]c5c1)Oc1ccc(cc1)C[C@@H]3N(C)CC2)N(C)CC4 [Compound 18] | 14.7 µM | 0.9 µM |  |
| COc1cc2c3cc1Oc1c(OC)c(OC)cc4c1[C@@H](Cc1ccc(C(C)=O)c(c1)Oc1ccc(cc1)C[C@@H]3N(C)CC2)N(C)CC4 [Compound 25] | 29.4 µM | < 2 µM |  |
| COc1cc2c3cc1Oc1c(OC)c(OC)cc4c1[C@@H](Cc1ccc(C(=O)NC5CCCC5)c(c1)Oc1ccc(cc1)C[C@@H]3N(C)CC2)N(C)CC4 [Compound 28] | 22.5 µM | 2.4 µM |  |
| COc1cc2c3cc1Oc1c(OC)c(OC)cc4c1[C@@H](Cc1cc(cc([N+](=O)[O-])c1)Oc1ccc(cc1)C[C@@H]3N(C)CC2)N(C)CC4 [Compound 33] | 24.3 µM | 0.63 µM |  |
| COc1cc2c3cc1Oc1c(OC)c(OC)cc4c1[C@@H](Cc1cccc(c1)Oc1ccc(cc1)C[C@@H]3N(C)CC2)N(C)CC4 [Compound 39] | 17.1 µM | 0.93 µM |  |
| C=C(C)c1ccc2cc1Oc1ccc(cc1)C[C@H]1c3cc(c(OC)cc3CCN1C)Oc1c(OC)c(OC)cc3c1[C@@H](C2)N(C)CC3 [Compound 40] | 11.7 µM | 0.95 µM |  |
| COc1cc2c3cc1Oc1c(OC)c(OC)cc4c1[C@@H](Cc1ccc(C)c(c1)Oc1ccc(cc1)C[C@@H]3N(C)CC2)N(C)CC4 [Compound 41] | 10.2 µM | 2.45 µM |  |
| C=CC(=O)Nc1ccc2cc1Oc1ccc(cc1)C[C@H]1c3cc(c(OC)cc3CCN1C)Oc1c(OC)c(OC)cc3c1[C@@H](C2)N(C)CC3 [Compound 42] | 31.1 µM | < 2 µM |  |
| CCCCCNC(=O)c1ccc2cc1Oc1ccc(cc1)C[C@H]1c3cc(c(OC)cc3CCN1C)Oc1c(OC)c(OC)cc3c1[C@@H](C2)N(C)CC3 [Compound 43] | 10.4 µM | 2.09 µM |  |

| Compound | CC50 [1] | EC50 [2, 3] | further results |
| --- | --- | --- | --- |
| COc1cc2c3cc1Oc1c(OC)c(OC)cc4c1[C@@H](Cc1ccc(C5CC5)c(c1)Oc1ccc(cc1)C[C@@H]3N(C)CC2)N(C)CC4 [Compound 44] | 10.8 µM | 2.25 µM |  |
| COc1cc2c3cc1Oc1c(OC)c(OC)cc4c1[C@@H](Cc1ccc(C(C)O)c(c1)Oc1ccc(cc1)C[C@@H]3N(C)CC2)N(C)CC4 (stereo partly drawn) [Compound 46] | 29.7 µM | 1.02 µM |  |
| COc1cc2c3cc1Oc1c(OC)c(OC)cc4c1[C@@H](Cc1ccc(C(=O)N5CCCCC5)c(c1)Oc1ccc(cc1)C[C@@H]3N(C)CC2)N(C)CC4 [Compound 47] | 24.6 µM | < 2 µM |  |
| COc1cc2c3cc1Oc1c(OC)c(OC)cc4c1[C@@H](Cc1ccc(C(=O)NC5CC5)c(c1)Oc1ccc(cc1)C[C@@H]3N(C)CC2)N(C)CC4 [Compound 49] | 62.3 µM | < 2 µM |  |
| COc1cc2c3cc1Oc1c(OC)c(OC)cc4c1[C@@H](Cc1ccc(C(=O)Nc5ccccc5)c(c1)Oc1ccc(cc1)C[C@@H]3N(C)CC2)N(C)CC4 [Compound 51] | 10.2 µM | < 2 µM |  |
| CCCCNC(=O)Oc1c(OC)cc2c3c1Oc1cc4c(cc1OC)CCN(C)[C@H]4Cc1ccc(cc1)Oc1cc(ccc1OC)C[C@H]3N(C)CC2 [Compound 53] | 22.2 µM |  | EC50 [2, 4]: < 2 µM |
| COc1cc2c3cc1Oc1c(OC)c(OC)cc4c1[C@@H](Cc1ccc(C(=O)Nc5ccc(C(F)(F)F)cc5)c(c1)Oc1ccc(cc1)C[C@@H]3N(C)CC2)N(C)CC4 [Compound 54] | 10.5 µM | < 2 µM |  |
| COc1cc2c3cc1Oc1c(OC)c(OC)cc4c1[C@@H](Cc1ccc(C(=O)NC(C)C)c(c1)Oc1ccc(cc1)C[C@@H]3N(C)CC2)N(C)CC4 [Compound 55] | 32 µM | < 2 µM |  |
| COc1cc2c3cc1Oc1c(OC)c(OC)cc4c1[C@@H](Cc1ccc(C(=O)NC5CCC5)c(c1)Oc1ccc(cc1)C[C@@H]3N(C)CC2)N(C)CC4 [Compound 57] | 33.9 µM | < 2 µM |  |
| COc1cc2c3cc1Oc1c(OC)c(OC)cc4c1[C@@H](Cc1ccc(C(=O)Nc5cccnc5)c(c1)Oc1ccc(cc1)C[C@@H]3N(C)CC2)N(C)CC4 [Compound 58] | 26.4 µM | < 2 µM |  |
| COc1ccc(NC(=O)c2ccc3cc2Oc2ccc(cc2)C[C@H]2c4cc(c(OC)cc4CCN2C)Oc2c(OC)c(OC)cc4c2[C@@H](C3)N(C)CC4)cc1 [Compound 59] | 10.6 µM | < 2 µM |  |
| COc1cc2c3cc1Oc1c(OC)c(OC)cc4c1[C@@H](Cc1ccc(C(=O)C5CC5)c(c1)Oc1ccc(cc1)C[C@@H]3N(C)CC2)N(C)CC4 [Compound 61] | 13.7 µM | < 2 µM |  |
| COc1cc2c3cc1Oc1c(OC)c(OC)cc4c1[C@@H](Cc1ccc(C(=O)NCCOCCO)c(c1)Oc1ccc(cc1)C[C@@H]3N(C)CC2)N(C)CC4 [Compound 62] | 123 µM | < 2 µM |  |
| COc1cc2c3cc1Oc1c(OC)c(OC)cc4c1[C@@H](Cc1ccc(C(=O)OCCOCCO)c(c1)Oc1ccc(cc1)C[C@@H]3N(C)CC2)N(C)CC4 [Compound 65] | 58.4 µM | < 2 µM |  |
| Berbamine hydrochloride [reference compound] |  |  | CC50 (Vero E6 cells): 29.9 µM; Anti-novel coronavirus effect (in words) (SARS-CoV-2): not strong; EC50 [2]: 14.5 µM |
